Data: article PMC2395599, “Low Dose Histone Deacetylase Inhibitor, Depsipeptide (FR901228), Promotes Adenoviral Transduction in Human Rhabdomyosarcoma Cell Lines” (Sarcoma, 2004)
Several values for one entry are separate records, joined by “and”; a condition that tells them apart may be missing. Identical values can stand only once.

Key:
[1] = test system: RMS cell lines (RD4a, CTR, RH5, RH13, RH18, RH30); conditions: 0.5 ng/ml, 72 h, six RMS cell lines, MTT, triplicate, DMSO controls
[2] = test system: acetylated histone H3 in CTR cells; assay: Western blot analysis for histone H3 acetylation; assay type: cell-based, human; conditions: CTR cell line, 0.5 ng/ml, 72 h, histone H3 loading control
Description: (§1) Sarcoma, March 2004, VOL. 8, NO. […] Methods. […] Results. […] Conclusions. […] Human av integrin primers:8 sense 50 -[…] AGT and antisense 50 -CAGTG[…] […] Cells were harvested after 72 h of treatment. Cell number was determined using a colorimetric MTT assay. […] The cells were replenished with complete media. […] References 1. […] Science 1997; 275: 1320-3. 2. […] J Virol 2000; 74: 42-8. 3. […] Virology 2000; 268: 382-90. 4. Wickham TJ, Mathias P, Cheresh DA, Nemerow GR. […] Cell 1993; 73: 309-19. 5. […] J Biol Chem 2000; 275: 14729-35. 6. […]. […] Cancer Res 1998; 58: 5738-48. 7. […] Cancer Res 1999; 59: 325-30. 8. […] Cancer Res 2001; 61: 6328-30. 9. […] Cancer Res 2001; 61: 2953-60. 10. […] J Biol Chem 1997; 272: 6479-89. 11.

[3] = test system: adenovirus AdU1 (GFP) uptake in RMS cell lines; assay: Adenoviral (AdU1) GFP expression in RMS cell lines pretreated with depsipeptide, Western blot densitometry; assay type: cell-based, human; conditions: 0.5 ng/ml 72 h pretreatment; for fold GFP expression: Fig. 2b
Description: as §1

av integrin = assay: Semi-quantitative RT-PCR for αv integrin RNA expression in RMS cells; assay type: cell-based, human; conditions: 0.5 ng/ml, 72 h; for fold av integrin expression: Fig. 3b
Description: as §1

[4] = test system: coxackie and adenovirus receptor (CAR); assay: Semi-quantitative RT-PCR for CAR RNA expression in RMS cells; assay type: cell-based, human; conditions: 0.5 ng/ml, 72 h; for fold CAR expression: Fig. 3a
Description: as §1

[5] = range over four of six RMS cell lines, RT-PCR normalised to GAPDH

## C/C=C1\NC(=O)[C@H]2CSSCC/C=C/[C@H](CC(=O)N[C@H](C(C)C)C(=O)N2)OC(=O)[C@H](C(C)C)NC1=O [depsipeptide (FR901228), Depsipeptide (FR901228)]
[1]
  growth inhibition of RMS cells compared to controls: less than 20%
[2]
  acetylated histone H3: increase in acetylated histone H3
[3]; CTR
  GFP protein expression: No GFP protein expression was detected
[3]; RD4a
  fold GFP expression: 2.7 X
[3]; RH5, Fig. 2b and text
  fold GFP expression (adenoviral uptake): 2.6 X and 2.8 X
[3]; RH13
  fold GFP expression: 2.8 X
[3]; RH18
  fold GFP expression: 7.8 X
[3]; RH30
  fold GFP expression: 8.6 X
Av integrin; CTR
  fold av integrin expression: 2.2 X and 2 X
Av integrin; RD4a
  fold av integrin expression: 1.3 X
Av integrin; RH5
  fold av integrin expression: 6.6 X
Av integrin; RH13
  fold av integrin expression: 6.9 X
Av integrin; RH18
  fold av integrin expression: 1.5 X
Av integrin; RH30
  fold av integrin expression: 1.1 X
Av integrin; [5]
  fold modulation of av integrin expression: 1.5-6.9 fold
[4]; CTR
  CAR expression: lack of CAR expression
[4]; RD4a
  fold CAR expression: 4.8 X
[4]; RH5
  fold CAR expression: 1.2 X
[4]; RH13
  fold CAR expression: 3.3 X
[4]; RH18
  fold CAR expression: 2.8 X
[4]; RH30
  fold CAR expression: 8.1 X
[4]; [5]
  fold increase in CAR expression compared to untreated cells: 2.8-8.1 fold
